Reference: patent US9708608B2, “Methods for producing a population of pancreatic beta-cells” (priority 2012, dated 2017)

What was measured:
[1] = test system: NOD mice; settings: NOD mice (Soltani et al., 2011; Tian et al., 2011); cited from earlier work
[2] = test system: glucagon-expressing cells; test: β-galactosidase lineage tracing in Glu-Cre::Rosa26-lox-β-gal mice treated with streptozotocin and GABA; assay type: in vivo, mouse; settings: isolated 40 days post-streptozotocin injection, daily GABA
Method: β-galactosidase-based lineage-tracing experiments: Pancreatic tissues were isolated and fixed for 30 min at 4° C. in a solution containing 1% formaldehyde, 0.2% glutaraldehyde, 0.02% NP40. The tissues were dehydrated in 25% sucrose overnight at 4° C. Prior to sectioning, tissues were embedded in freezing medium. For β-galactosidase activity assessment, the tissues were washed in PBS and then incubated overnight in staining solution (500 mM K3Fe(CN)6, 250 mM K4Fe(CN)6, 0.5M MgCl2, 40 mg/ml X-gal in DMF).
Several examples, from unrelated islets, of cells co-expressing insulin with glucagon were noted. […] To validate this hypothesis, we used Glu-Cre::Rosa26-lox-β-gal mice. […] It is important to note that such double-positive cells (in lesser proportion) are also observed in GABA-treated Glu-Cre::Rosa26-lox-β-gal animals not subjected to streptozotocin administration.

[3] = test system: mice; settings: streptozotocin-induced diabetes in mice (Soltani et al., 2011; Gomez et al., 2007); cited from earlier work
[4] = test system: WT mice; test: Glucose tolerance test in GABA- and STZ-treated WT mice; assay type: in vivo, mouse; settings: surviving GABA-treated mice, 85 days post-streptozotocin, versus controls not treated with GABA or streptozotocin
Description: (§1) FIG. 4: The β-like cell mass can be regenerated following streptozotocin treatment in GABA-treated mice, the neo-generated insulin^+ cells being functional. […] Such a recovery is associated with a clear regeneration of their β-cell mass monitored 5, 10, 25 and 45 days post-streptozotocin administration by immunochemistry. 85 days post-streptozotocin injection, GABA- and STZ-treated WT and non-treated controls were subjected to a glucose tolerance test (GTT) (B).

[5] = test system: insulin+ cells; test: Endocrine cell marker expression of insulin+ cells in GABA-treated pancreata (immunochemistry); assay type: in vivo, mouse; settings: GABA-treated islets versus non-treated controls; Pdx1, Nkx6.1, NeuroD1, Glut 2, PC1/3, Pax6
Method: (§2) Immunohistochemistry: Tissues were fixed in 4% PFA for 30 min at 4° C., embedded in paraffin and 8 μm sections applied to slides. These sections were assayed as described previously [Collombat et al., 2003]. The primary antibodies used were the following: guinea pig polyclonal anti-insulin (1/500-Linco), anti-glucagon (1/500-Milipore), mouse monoclonal anti-glucagon (1/500-Sigma), anti-BrdU (1/40-Roche), anti-E-cadherin (1/200-BD Transduction Lab), rat anti-somatostatin (1/250-Millipore), rabbit anti-Glut2 (1/5000), anti-PC1/3 (1/500-Milipore), anti-Nkx6.1 (1/3000-Novonordisk), anti-Pdx1 (1/1000), anti-NeuroD1 (1/200-Milipore), anti-Ngn3 (1/500-Abgent), anti-β-galactosidase (1/10000-Milipore), chicken anti vimentin (1/5000-Milipore), goat anti-osteopontin (1/200-R&D Systems). The secondary antibodies (1/1000-Molecular Probes) used were: 594- and 488-alexa anti-mouse; 594- and 488-alexa anti-rabbit; 594- and 488-alexa anti-guinea pig; 488-alexa anti-rat; 594- and 488-alexa anti-goat; 594- and 488-alexa anti-chicken. Pictures were processed using ZEISS Axioimager Z1 and LEICA DM 6000 B. For quantification purpose, stained cells were counted manually on every tenth section.
To ascertain the identity of the insulin^+ cells in GABA-treated pancreata, we assayed the expression of several endocrine cell marker genes by immunochemistry compared to non-treated controls. […]

[6] = test system: Arx mRNA in α-TC1-6 cells; test: Relative Arx mRNA expression in α-TC1-6 cells treated with GABA; assay type: cell-based; settings: α-TC1-6 cell line, increasing GABA concentrations, different periods of time, versus non-treated cells
Method: Relative Arx mRNA expression was measured in the different conditions.
RNA Analysis: RNA was isolated (RNEASY® (RNA isolation kit), Qiagen) and cDNA synthesis ([…]® (cDNA synthesis kit) choice system, Invitrogen) was performed according to the manufacturer's instructions. Quantitative RT-PCR was carried out using validated primers (Qiagen) and the […]® SYBR Green RT-PCR Kit (Qiagen) following manufacturer's instructions. PCR reactions and detection were performed on a […]® ep realplex cycler using GAPDH and HPRT1 as internal controls for normalization purposes.

[7] = Life expectancy, basal glycemia and general health of GABA-treated WT mice
[8] = test system: pancreatic cells of WT mice; test: BrdU cell proliferation in GABA-treated WT mice; assay type: in vivo, mouse
Description: Thus, to gain further insight into the mechanisms underlying these processes, we administered the thymidine analogue 5-bromo-2′-deoxyuridine (BrdU) to detect actively replicating cells. […] In addition, glucagon^+ and somatostatin^+ cells were not uniformly distributed within the islet mantle but rather found clustered at a pole of the islet, adjacent to neighboring ducts, unlike in controls where the distribution of the non-β-cells were found scattered in the mantle of the islets.

[9] = test system: WT mice; test: Streptozotocin-mediated diabetes in WT mice treated with GABA; assay type: in vivo, mouse
Description: as §1
Induction of streptozotocin-mediated diabetes: To induce hyperglycaemia, STZ (Sigma) was dissolved in 0.1M sodium citrate buffer (pH 4.5), and a single dose was administered intraperitoneally (100 mg/kg) within 10 min of dissolution. Diabetes progression was assessed by the monitoring of blood glucose levels of the mice.
A functional β-cell mass can be regenerated following chemically-induced diabetes in GABA-treated animals: To determine whether neo-formed insulin^+ cells could functionally replace endogenous β-cells, we injected WT animals with a high dose of streptozotocin to obliterate the endogenous β-cell mass.

[10] = test system: Ngn3; test: Ngn3 immunohistochemistry in GABA-treated pancreata; assay type: in vivo, mouse; settings: no Ngn3 expression in control animals
Method: as §2, with “section. […]” for “section.”

[11] = test system: pancreatic islets of WT mice; test: Quantification of islets and hormone-expressing cells in GABA-treated WT mice (immunohistochemistry, pixel counting); assay type: in vivo, mouse; settings: versus aged-matched controls; for Glucagon+ cell count / Somatostatin+ cell count / Insulin+ cell count: pixel counting; for Insulin+ cell count / Islet count / Islet size: mean ± SEM; for Islet count / Islet size: treatment age 2.6 m
Method: as §2
Cell counts: Quantitative analyses were performed by the counting of colored pixels on (immuno-) stained sections of pancreas using the Photoshop software. Specifically, every 10th section was processed using the same settings for all animals and genotypes.

What does the source list for `NCCCC(=O)O` [GABA, gamma-amino butyric acid]?
Diabetes reversal [1]: reverse diabetes; Insulin and β-galactosidase co-labelling (conversion of glucagon-expressing cells) [2]: a majority of cells positive for insulin and β-galactosidase; Blood glucose levels [3]: decrease blood glucose levels; Response to glucose challenge [4]: improved response with a lower raise in glycemia and a faster return to euglycemia; Expression of β-cell markers in insulin-expressing cells [5]: uniformly expressed the bona fide β-cell markers; Arx mRNA expression [6]: decrease in Arx mRNA expression; Viability, health and fertility of treated animals ([7]; GABA-treated WT mice): viable, healthy and fertile; Life expectancy ([7]; WT mice, GABA treatment duration 1 month, treatment age 2.6 m): normal; Life expectancy ([7]; WT mice, GABA treatment duration 2 months, treatment age 2.6 m): normal; Life expectancy ([7]; WT mice, GABA treatment duration 3 months, treatment age 2.6 m): normal; Basal glycemia ([7]; WT mice, GABA treatment duration 3 months, treatment age 2.6 m, monitored weekly): 142; Location of BrdU+ proliferating cells ([8]; GABA-treated WT pancreata, BrdU for 10 days): predominantly located in the ductal lining and in the ductal epithelium; β-cell proliferation ([8]; GABA-treated mice, relative to the size of the islets, data not shown): lack of a significant increase in β-cell proliferation; Regeneration of insulin+ cells after β-cell loss ([9]; GABA-treated WT animals after streptozotocin, immunohistochemistry at different time points): progressively regenerated; Glycemia course after streptozotocin ([9]; WT mice, high dose STZ, GABA started at approximately 300 mg/dl, water controls died from extreme hyperglycemia): steady recovery; Sensitivity to another round of streptozotocin ([9]; surviving GABA-treated mice, data not shown): not sensitive to STZ; Ngn3 expression [10]: reactivation of Ngn3 in the ductal environment; Glucagon+ cell count ([11]; GABA 1 month): x 0.97; Somatostatin+ cell count ([11]; GABA 1 month): x 1.43; Insulin+ cell count ([11]; GABA 1 month): x 1.04 ± 0.15; Islet count ([11]; GABA 1 month): x 2.19 ± 0.04; Islet size ([11]; GABA 1 month): x 1.04 ± 0.15; Glucagon+ cell count ([11]; GABA 2 months): x 1.91; Somatostatin+ cell count ([11]; GABA 2 months): x 2.39; Insulin+ cell count ([11]; GABA 2 months): x 2.15 ± 0.22; Islet count ([11]; GABA 2 months): x 1.86 ± 0.05; Islet size ([11]; GABA 2 months): x 2.15 ± 0.22; Glucagon+ cell count ([11]; GABA 3 months): x 3.02; Somatostatin+ cell count ([11]; GABA 3 months): x 2.84; Insulin+ cell count ([11]; GABA 3 months): x 3.49 ± 0.11; Islet count ([11]; GABA 3 months): x 1.80 ± 0.03; Islet size ([11]; GABA 3 months): x 3.49 ± 0.11
